Legend:
[1] = target: T1, human neutrophil elastase (Homo sapiens, UniProt P08246); experiment: Prevention of NSP-mediated PSMα3 degradation by NSP inhibitors (western blot); type: biochemical; conditions: 100µM PMSF, one hour at 37°C, text: pre-incubation of neutrophils, Supplementary Figure 1: digestion with NE
T1 construct: purchased PanReac AppliChem
T1 sequence (P08246 30-267): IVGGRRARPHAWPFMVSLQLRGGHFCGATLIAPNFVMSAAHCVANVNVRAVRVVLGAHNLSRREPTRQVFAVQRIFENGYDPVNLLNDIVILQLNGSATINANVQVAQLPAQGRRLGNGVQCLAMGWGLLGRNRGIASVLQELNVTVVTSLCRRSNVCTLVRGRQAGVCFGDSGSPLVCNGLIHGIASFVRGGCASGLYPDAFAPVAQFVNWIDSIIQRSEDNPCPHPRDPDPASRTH
Experimental: (§1) PSMα3 (1,3µg) was digested either with 0,15 unit’s NE, CG or PR3 for one hour at 37°C with or without addition of PMSF (100µM) or 2µg Eap, 4µgEapH1 or 4µg EapH2. For digestion of PSMα3 by neutrophils, 25µl PSMα3 (20µM) was incubated for one hour with or without 5x10^6 neutrophils in 100µl RPMI at 37°C, 5% CO2. After centrifugation 10µl of the supernatant was used for western Blot analysis. After denaturation of the samples for two minutes at 85°C and addition of Tricine Sample Buffer, samples were subjected to a 10-20%- Tricine SDS gradient gel (Thermo Fischer Scientific). Then, proteins were blotted to a nitrocellulose membrane and blocked overnight using blocking buffer. After washing PSM α3 was visualized using rabbit anti-PSMα3 serum (kindly provided by Michael Otto) at a concentration of 1:10000 (for one hour, 4°C, under agitation). After washing with wash buffer (Tris buffered saline, BioRad +0,05% Tween, Merck), the secondary antibody goat anti rabbit IgG (Dylight 800 conjugate (LI-COR #2557) was added (diluted 1:10000 in blocking buffer) and incubated for one hour at 4°C. Protein bands were detected with the Licor Odyssey CLx.

human neutrophils = experiment: CD11b expression on neutrophils; type: cell-based; conditions: USA300 culture filtrate 0,36% in RPMI, treated 24 hours with neutrophils +/- PMSF; neutrophils stimulated 60 min 37°C; flow cytometry
Experimental: Sterile filtered culture filtrates of S. aureus USA300 (0,36% in RPMI) or TSB were incubated for 24 hours either with or without addition of the NSP inhibitor PMSF and neutrophils. Activation of human neutrophils was determined by measuring surface expression of CD11b. Neutrophils were incubated with the treated culture filtrates at 37°C with rotation for 60 min as described elsewhere ([24]). Cells were stained with a PE-labeled antibody against CD11b (mAb 44; BD Biosciences) or isotype control antibody (BD Biosciences) as described previously. Then, neutrophils were analyzed on a FACS Fortessa cytometer (BD Biosciences)

human FPR2/ALX = target: T2, human FPR2/ALX (Homo sapiens, UniProt P25090); experiment: Calcium mobilization in HL60 FPR2 cells; type: cell-based; conditions: calcium flux
T2 construct: expressed in transfected cells; host or cells: HL60
T2 sequence (P25090 1-351): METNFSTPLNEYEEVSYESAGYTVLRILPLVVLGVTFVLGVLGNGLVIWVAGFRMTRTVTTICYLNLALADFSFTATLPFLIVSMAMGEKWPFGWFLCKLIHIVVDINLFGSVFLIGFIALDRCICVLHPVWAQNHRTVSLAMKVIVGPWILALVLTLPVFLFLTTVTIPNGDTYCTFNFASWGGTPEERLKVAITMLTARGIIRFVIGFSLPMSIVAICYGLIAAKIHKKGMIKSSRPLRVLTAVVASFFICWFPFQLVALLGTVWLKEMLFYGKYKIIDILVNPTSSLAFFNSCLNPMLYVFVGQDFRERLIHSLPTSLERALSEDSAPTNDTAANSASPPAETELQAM
Experimental: Culture filtrates of different bacterial strains (USA300, USA300ΔeapΔeapHIΔeapHII::ermB, S. epidermidis RN1457) were incubated with different amounts of neutrophils to investigate the potential of neutrophils to inactivate their PSM activity. Therefore, 100µl of sterile filtered overnight culture were incubated with 100µl neutrophils in RPMI at the indicated concentrations for six or 24 hours as described in the figure legends. After centrifugation, supernatants were collected and frozen at -20° until they were further analyzed for their FPR2 activity, for truncated PSM fragments and their cytotoxicity.
HL60 cells stably transfected with human FPR2/ALX (HL60-FPR2) have been described recently ([23]). These cells were grown in RPMI medium (Biochrom) supplemented with 10% FCS (Sigma-Aldrich), 20 mM Hepes (Biochrom), penicillin (100 units/ml), streptomycin (100 µg/ml) (Gibco), 1 × Glutamax (Gibco) and in the presence of G418 (Biochrom) at a final concentration of 1 mg/ml. […] Calcium fluxes were analyzed by stimulating cells loaded with Fluo-3-AM (Molecular Probes) and monitoring fluorescence with a FACSCalibur or a FACS Fortessa flow cytometer (BD Biosciences) as described recently ([23]).

[2] = target: T3, human neutrophil proteinase 3 (Homo sapiens, UniProt P24158); experiment: Degradation of PSMα3 by PR3 (western blot); type: in vitro ADME; conditions: PSMα3 1,3µg, 0,15 units PR3, one hour at 37°C, three independent experiments
T3 construct: purchased MyBioSource
T3 sequence (P24158 28-256): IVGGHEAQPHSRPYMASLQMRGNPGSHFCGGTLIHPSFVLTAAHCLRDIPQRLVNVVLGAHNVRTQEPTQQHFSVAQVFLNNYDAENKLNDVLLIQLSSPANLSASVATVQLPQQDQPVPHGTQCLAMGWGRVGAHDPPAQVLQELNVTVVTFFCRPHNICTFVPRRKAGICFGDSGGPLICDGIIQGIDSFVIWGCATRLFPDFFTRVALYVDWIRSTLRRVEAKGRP
Experimental: (§2) The three different human serine proteases human NE, PR3, 0.01 U and CG, 0.01 U were investigated and their potential to inactivate PSMα3 was compared. […] 28 ng/ml NE (stock: 1.4 mg/ml) were incubated for one hour at 37°C in RPMI plus 0.05% HSA to inactivate 500 nM PSMα3 in a total volume of 120 μl (0.012 μl NE in 60 μl RPMI). To avoid further degradation of PSMα3, all stimulations were prepared freshly and analyzed in different assays on the same day.
as §1, with “Then, proteins were blotted to a nitrocellulose membrane and blocked overnight using blocking buffer. After washing PSM α3 was visualized using rabbit anti-PSMα3 serum (kindly provided by Michael Otto) at a concentration of 1:10000 (for one hour, 4°C, under agitation).” left out

HL60 cells = experiment: Cytotoxicity assay (LDH release), HL60 cells; type: cell-based, human; conditions: three independent experiments
Experimental: 100 μl of synthetic PSMs, protease degraded PSMs or filtered bacterial culture supernatants were added to wells of a 96-well round bottom culture plate containing 10^5 neutrophils in 100 μl and plates were incubated at 37°C for up to 3 h. At the desired times, the stimulation was stopped by centrifugation for 10 minutes at 300 x g at RT, and cell lysis was determined by measuring the release of lactate dehydrogenase (LDH) using the Cytotoxicity Detection Kit (Roche Applied Sciences), according to the manufacturer’s instructions. As control, 100 μl TSB was diluted in RPMI without phenol red, mixed with human neutrophils (10^6) and tested for its ability to cause cell lysis. As control, lysis of HL60 cells was tested in pure RPMI/TSB without phenol red.

[3] = target: T4, human neutrophil cathepsin G (Homo sapiens, UniProt P08311); experiment: Degradation of PSMα3 by CG (western blot); type: in vitro ADME; conditions: PSMα3 1,3µg, 0,15 units CG, one hour at 37°C, three independent experiments
T4 construct: purchased MyBioSource
T4 sequence (P08311 21-255): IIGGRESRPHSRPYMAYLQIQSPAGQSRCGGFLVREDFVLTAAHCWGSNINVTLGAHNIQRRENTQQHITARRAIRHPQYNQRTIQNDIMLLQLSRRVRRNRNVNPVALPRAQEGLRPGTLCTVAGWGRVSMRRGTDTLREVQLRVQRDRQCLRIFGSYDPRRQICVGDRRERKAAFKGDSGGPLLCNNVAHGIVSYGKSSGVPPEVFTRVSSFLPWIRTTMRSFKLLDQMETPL
Experimental: as §2
as §1, with “Then, proteins were blotted to a nitrocellulose membrane and blocked overnight using blocking buffer. After washing PSM α3 was visualized using rabbit anti-PSMα3 serum (kindly provided by Michael Otto) at a concentration of 1:10000 (for one hour, 4°C, under agitation).” left out

[4] = target: T1, human neutrophil elastase; experiment: Degradation of PSMα3 by NE (western blot); type: in vitro ADME; conditions: PSMα3 1,3µg, 0,15 units NE, one hour at 37°C, three independent experiments
Experimental: as §2
as §1, with “Then, proteins were blotted to a nitrocellulose membrane and blocked overnight using blocking buffer. After washing PSM α3 was visualized using rabbit anti-PSMα3 serum (kindly provided by Michael Otto) at a concentration of 1:10000 (for one hour, 4°C, under agitation).” left out

With `O=S(=O)(F)Cc1ccccc1` [PMSF, Phenylmethylsulfonyl fluoride] the “effect of NSP inhibitor PMSF on degradation of PSMα3” value [1] was “prevents degradation of PSMα3”, the “CD11b surface expression on neutrophils incubated with culture filtrates of a PSM-producing S. aureus strain in the presence of inhibitor” value (human neutrophils) was “upregulation of CD11b” and the “PSM-mediated FPR2 activation by culture filtrates of PSM producing S. aureus in the simultaneous presence of neutrophils and inhibitor” value (human FPR2/ALX; HL60-FPR2 cells) was “rescued PSM-mediated FPR2 activation”. For the same compound, the “PSMα3-mediated activation of FPR2 in HL60-FPR2 cells after neutrophil treatment with PMSF pre-incubation” value (human FPR2/ALX; three independent experiments) was “maintained the activation of FPR2”.
With `CSCC[C@H](NC=O)C(=O)N[C@@H](CCC(=O)O)C(=O)N[C@@H](Cc1ccccc1)C(=O)N[C@H](C(=O)N[C@@H](C)C(=O)N[C@@H](CCCCN)C(=O)N[C@@H](CC(C)C)C(=O)N[C@@H](Cc1ccccc1)C(=O)N[C@@H](CCCCN)C(=O)N[C@@H](Cc1ccccc1)C(=O)N[C@@H](Cc1ccccc1)C(=O)N[C@@H](CCCCN)C(=O)N[C@@H](CC(=O)O)C(=O)N[C@@H](CC(C)C)C(=O)N[C@@H](CC(C)C)C(=O)NCC(=O)N[C@@H](CCCCN)C(=O)N[C@@H](Cc1ccccc1)C(=O)N[C@@H](CC(C)C)C(=O)NCC(=O)N[C@@H](CC(N)=O)C(=O)N[C@@H](CC(N)=O)C(=O)O)C(C)C` [PSMα3] the “degradation of PSMα3 upon incubation with PR3” value [2] was “readily degraded”, the “cytotoxicity of PSMα3 toward HL60 cells after treatment with NE, CG and PR3” value (HL60 cells) was “abolished” and the “degradation of PSMα3 upon incubation with CG” value [3] was “readily degraded”. For the same compound, the “degradation of PSMα3 upon incubation with NE” value [4] was “readily degraded”.

Source: publication PMC8451722, “Staphylococcus aureus Depends on Eap Proteins for Preventing Degradation of Its Phenol-Soluble Modulin Toxins by Neutrophil Serine Proteases” (Frontiers in Immunology, 2021)
